Test results: EP3741379A1, “COSMETIC COMPOSITION COMPRISING AZADIRACHTA INDICA LEAF EXTRACT” (HONEST CO.,LTD., priority 2019, dated 2020)

Assays:
[1] = Hyaluronic acid + iron 10 ppm; sample at 0.2%
Excerpt: When hyaluronic acid is degraded by heavy metals, the viscosity of the solution decreases, so the lower the viscosity, the greater the degradation of hyaluronic acid.

TRP-1 mRNA = TRP-1 mRNA expression through real-time PCR in α-MSH-treated B16F10; assay type: cell-based, mouse; conditions: at 100 µg/mL
Method: As cell lines, RAW 264.7, B16F10 and HacaT cells were aliquoted at 3 x 10^5 cells/well to a 6-well plate and cultured in a 5% CO2 incubator at 37°C for 24 hr. Then, the culture medium was replaced with serum-free DMEM, after which, in order to induce cell inflammation, whitening and wrinkle reduction, RAW 264.7 and B16F10 were treated with lipopolysaccharide (LPS) and alpha-melanocyte-stimulating hormone (α-MSH), respectively, at 1 ppm/well, and the cells were treated with each sample solution at different concentrations and then cultured in a 5% CO2 incubator at 37°C for 24 hr. As for HacaT cells, all experimental groups except the untreated group were washed once with PBS, added with PBS, and irradiated with UV-B (300 mJ/cm^2). After irradiation, the cells were treated with the sample solution at different concentrations and cultured for 24 hr to 48 hr. […] Thereafter, RNA was quantified using absorbance, and cDNA was then synthesized using a TProfessional basic thermocycler instrument. Thereafter, 40 PCR cycles of 95°C for 10 sec, 60°C for 15 sec, and 72°C for 20 sec were performed using Power SYBR Green PCR Master Mix reagents, primers and cDNA and using a Step One real-time PCR system, and quantitative analysis was conducted using an analysis program.
The inhibition rate of TRP-1 mRNA expression by AIE was determined through real-time PCR.

| Compound | Viscosity [1] | inhibition of TRP-1 mRNA expression (TRP-1 mRNA) |
| --- | --- | --- |
| O=C([O-])CN(CCN(CC(=O)O)CC(=O)O)CC(=O)[O-].[Na+].[Na+] [EDTA-2Na] | 7,800 cp |  |
| OC[C@H]1O[C@@H](Oc2ccc(O)cc2)[C@H](O)[C@@H](O)[C@@H]1O [arbutin] |  | 14.86% |
